# Measurements published in patent US20250025466A1, “New oral pharmaceutical composition and dose regimen for the therapy of progressive fibrosing interstitial lung diseases” (Boehringer Ingelheim International GmbH, priority 2021, published 2025).
# Marks after values point to notes of the source that are not given here.
# How the values were obtained:
# tuberculosis model = details: rabbit, in vivo; cited from earlier work
# human lung fibroblasts = details: combination with nintedanib; WO2019/081235; cited from earlier work
# IPF patients [1] = assay: Phase II clinical trial in IPF patients: disposition / premature discontinuation; type: in vivo, human; details: 18 mg b.i.d.
# Procedure: The participants were divided into 2 groups by chance (the “active agent group” and the “placebo group”). […] One 12 mg placebo tablet and one 6 mg placebo tablet (both containing no active ingredient, see Table 1) was administered orally to the patients of the second group twice daily (b.i.d.).
# The “active agent group” and the “placebo group” were further distributed to two different groups regarding background medication: the “AF-group” (“antifibrotic background medication group”) and the “Non-AF-group” (“no antifibrotic background medication group”). […] The combination of both nintedanib and pirfenidone as background medication was not allowed in the “AF-group”.
# The trial was a randomised, double-blind, placebo-controlled parallel group study.
# IPF patients [2] = details: male, human, in vivo, 13 weeks
# IPF patients [3] = assay: Phase II clinical trial in IPF patients: Treatment Emergent Adverse Events
# PDE4 B subtype = PDE4 B subtype (Homo sapiens, UniProt Q07343); details: disclosed in WO 2013/026797; cited from earlier work
# skin fibrosis = details: induced by bleomycin or topoisomerase I and chronic graft-versus-host disease; cited from earlier work
# [4] = tested on: dextran sulfate sodium-induced colitis ulcerosa; details: mouse, in vivo; cited from earlier work
# bleomycin mice [5] = details: mouse, in vivo; cited from earlier work
# [6] = tested on: human fetal lung fibroblasts (HFL-1); details: cited from earlier work
# patients with IPF [7] = details: IPF with mild or moderate impairment of FVC (≥50% predicted); cited from earlier work
# patients with IPF [8] = details: in vivo; cited from earlier work
# [9] = tested on: normal human lung fibroblasts (NHLFs); details: cited from earlier work
# [10] = tested on: normal human lung fibroblasts (NHLFs); details: in the presence of PGE2; cited from earlier work
# [11] = tested on: normal human lung fibroblasts (NHLFs); details: stimulated by bleomycin or 8-epi-PGF2α; cited from earlier work
# [12] = tested on: human fetal lung fibroblast strain (GM06114); details: in the presence of PGE2; cited from earlier work
# [13] = tested on: normal human lung fibroblasts (NHLFs); details: in the presence of indacaterol; cited from earlier work
# [14] = tested on: human lung fibroblast model (WI-38); details: in the presence of forskolin; cited from earlier work
# bleomycin mice [15] = details: mouse, in vivo; cited from earlier work; remark: listed apart in the source
# [16] = tested on: bleomycin-induced fibrosis; details: cited from earlier work
# [17] = tested on: chronic graft-versus-host disease; details: cited from earlier work
# [18] = tested on: diethylnitrosamine-induced liver fibrosis; details: rat, in vivo; cited from earlier work
# [19] = tested on: type II alveolar epithelial cells; details: cited from earlier work
# [20] = tested on: bleomycin-induced fibrosis; details: administered from the beginning of bleomycin challenge; cited from earlier work
# [21] = tested on: bile duct ligation-induced hepatic fibrosis; details: rat, in vivo; cited from earlier work
# sponge implant model = details: subcutaneous or intraperitoneal implant; cited from earlier work
# hepatic stellate cells = details: cited from earlier work
# [22] = tested on: renal interstitial fibrosis; details: mouse, in vivo; cited from earlier work
# [23] = tested on: A549 human alveolar epithelial cell line; details: TGF-β1-stimulated; cited from earlier work
# [24] = tested on: trinitrobenzene sulfonic acid-induced colitis; details: rat, in vivo; cited from earlier work
# cecal abrasion model = details: mouse, in vivo; cited from earlier work
# [25] = tested on: mouse primary tubular epithelial cells; details: cited from earlier work
# [26] = AF-group nintedanib background, 18 mg b.i.d.
# [27] = AF-group pirfenidone background, 18 mg b.i.d.
# [28] = Total (Non-AF + AF), 18 mg b.i.d.
# PDE4 B subtype, sequence (Q07343 whole entry): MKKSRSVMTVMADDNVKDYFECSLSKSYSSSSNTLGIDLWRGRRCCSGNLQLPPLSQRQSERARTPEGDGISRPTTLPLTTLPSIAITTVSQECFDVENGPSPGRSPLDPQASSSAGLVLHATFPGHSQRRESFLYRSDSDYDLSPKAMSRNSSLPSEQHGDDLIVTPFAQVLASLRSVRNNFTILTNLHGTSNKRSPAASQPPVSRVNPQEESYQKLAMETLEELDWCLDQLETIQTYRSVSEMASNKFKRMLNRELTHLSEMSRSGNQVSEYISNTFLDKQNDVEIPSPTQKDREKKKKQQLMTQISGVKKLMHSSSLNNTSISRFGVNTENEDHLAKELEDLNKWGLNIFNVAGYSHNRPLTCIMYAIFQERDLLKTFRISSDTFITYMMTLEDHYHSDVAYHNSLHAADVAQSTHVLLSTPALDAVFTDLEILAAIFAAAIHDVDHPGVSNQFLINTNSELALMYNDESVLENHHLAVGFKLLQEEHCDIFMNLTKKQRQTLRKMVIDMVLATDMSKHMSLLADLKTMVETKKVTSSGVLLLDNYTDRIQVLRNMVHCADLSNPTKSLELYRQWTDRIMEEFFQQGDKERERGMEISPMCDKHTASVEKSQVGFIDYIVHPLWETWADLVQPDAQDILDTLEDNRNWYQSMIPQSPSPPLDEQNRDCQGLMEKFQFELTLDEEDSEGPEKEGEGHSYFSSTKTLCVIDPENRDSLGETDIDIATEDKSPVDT
smiles,measurement,setting,value
CCOc1cc([C@@H](CS(C)(=O)=O)N2Cc3cccc(NC(=O)C4CC4)c3C2=O)ccc1OC [CC-11050],Pulmonary damage and fibrosis,tuberculosis model,inhibited
[O-][S@+]1CCc2nc(N3CCC(c4ncc(Cl)cn4)CC3)nc(NC3(CO)CCC3)c21 [Comp. of Form. III],Effect on fibroblast proliferation,human lung fibroblasts,synergistic overadditive effect
same,"Not completed observation period: Death, %",IPF patients [1]; AF-group,2.0%
same,"Not completed planned treatment period (prematurely discontinued trial medication), %",IPF patients [1]; AF-group,20.4%
same,"Not completed treatment period: Adverse Event, %",IPF patients [1]; AF-group,20.4%
same,"Not completed observation period: Death, %",IPF patients [1]; Non-AF-group,2.1%
same,"Not completed planned treatment period (prematurely discontinued trial medication), %",IPF patients [1]; Non-AF-group,10.4%
same,"Not completed treatment period: Adverse Event, %",IPF patients [1]; Non-AF-group,6.3%
same,Moderate cases of diarrhoea,IPF patients [2],2.1%
same,Severe case of diarrhoea,IPF patients [2],1.0%
same,AE: Infections and infestations,IPF patients [3]; [26],6 (23.1) n (%)
same,"Serious AEs: Results in Death, %",IPF patients [3]; [26],0%
same,AE: Infections and infestations,IPF patients [3]; [27],1 (4.3) n (%)
same,"Serious AEs: Results in Death, %",IPF patients [3]; [27],4.3%
same,AE: Infections and infestations,"IPF patients [3]; AF-group, 18 mg b.i.d.",7 (14.3) n (%)
same,Patients with AE resulting in death,"IPF patients [3]; AF-group, 18 mg b.i.d.",1 (2.0) n (%)
same,"SAE: General disorders and administration side conditions, fatal events","IPF patients [3]; AF-group, 18 mg b.i.d., bracketed value marked * (fatal events)",[1 (2.1)]* n (%)
same,SAE: Vasculitis,"IPF patients [3]; AF-group, 18 mg b.i.d., fatal event",1 (2.0)* n (%)
same,AE: Infections and infestations,"IPF patients [3]; Non-AF-group, 18 mg b.i.d.",7 (14.6) n (%)
same,Patients with AE resulting in death,"IPF patients [3]; Non-AF-group, 18 mg b.i.d.",1 (2.1) n (%)
same,SAE: Infections and Infestations,"IPF patients [3]; Non-AF-group, 18 mg b.i.d.",1 (2.1) n (%)
same,SAE: Covid-19 pneumonia,"IPF patients [3]; Non-AF-group, 18 mg b.i.d., fatal event",1 (2.1)* n (%)
same,AE: Infections and infestations,IPF patients [3]; [28],14 (14.4) n (%)
same,Patients with AE resulting in death,IPF patients [3]; [28],2 (2.1) n (%)
same,SAE: Covid-19 pneumonia,IPF patients [3]; [28],1 (1.0) n (%)
same,SAE: Infections and Infestations,IPF patients [3]; [28],1 (1.0) n (%)
same,Patients who experienced an AE resulting in death,"IPF patients [3]; active agent group, all, one Covid-19 pneumonitis, one unconfirmed vasculitis",2 patients
same,PDE4 subtype preference,PDE4 B subtype,inhibit preferentially the PDE4 B subtype
CCOc1cc([C@@H](CS(C)(=O)=O)N2C(=O)c3cccc(NC(C)=O)c3C2=O)ccc1OC [apremilast],Skin fibrosis,skin fibrosis,inhibited
same,"Fibrosis in colon, collagen deposition, fibrosis-related gene expression",[4],"inhibited fibrosis in colon, collagen deposition, and the expression of genes related to fibrosis"
COc1ccc([C@]2(C#N)CC[C@@H](C(=O)O)CC2)cc1OC1CCCC1 [cilomilast],Late-stage lung fibrosis and collagen content,bleomycin mice [5],inhibit late-stage lung fibrosis and tended to reduce collagen content
same,TGF-β1 and collagen type (Col) 1A1 expression,bleomycin mice [5],no effect
same,FN-induced chemotaxis and contraction of collagen gels,[6],inhibited FN-induced chemotaxis and contraction of collagen gels
COC(=O)c1ccc2c(c1)NC(=O)/C2=C(\Nc1ccc(N(C)C(=O)CN2CCN(C)CC2)cc1)c1ccccc1 [nintedanib],Effect on FVC decline,patients with IPF [7],can only reduce the decline in FVC
same,Most prominent side effects,patients with IPF [8],"gastrointestinal events, particularly diarrhea, nausea, vomiting, abdominal pain, decreased appetite and a decreased body weight"
COc1ccc(C(=O)Nc2c(Cl)cncc2Cl)cc1OC1CCCC1 [piclamilast],IL-1β plus bFGF-stimulated fibroblast proliferation,[9],inhibition of IL-1β plus bFGF-stimulated fibroblast proliferation
same,TGF-β-induced fibroblast-to-myofibroblast conversion (α-SMA expression),[10],inhibited
Cc1ccc(=O)n(-c2ccccc2)c1 [pirfenidone],Effect on FVC decline,patients with IPF [7],can only reduce the decline in FVC
same,Most prominent side effects,patients with IPF [8],"gastrointestinal events, particularly diarrhea, nausea, vomiting, abdominal pain, decreased appetite and a decreased body weight"
O=C(Nc1c(Cl)c[n+]([O-])cc1Cl)c1ccc(OC(F)F)c(OCC2CC2)c1 [roflumilast N-oxide],"NHLF responses (collagen synthesis, proliferation, ROS and F2-isoprostane formation, NADPH oxidase 4 expression)",[11],inhibited
same,"ICAM-1 and eotaxin release, proliferation, α-SMA, CTGF, FN mRNA",[12],inhibit intercellular adhesion molecule-1 and cotaxin release stimulated by TNF-α
O=C(Nc1c(Cl)cncc1Cl)c1ccc(OC(F)F)c(OCC2CC2)c1 [roflumilast],"TGF-β1-induced CTGF mRNA, α-SMA protein expression and FN",[13],inhibition
same,"TGF-β-induced mRNA expression of collagen α1, CTGF, and FN",[14],inhibited
same,Levels of the amino acids glycine and proline,bleomycin mice [15],lowered
same,Lung glutathione and plasma tetrahydrobiopterin,bleomycin mice [15],increased
same,Right ventricular hypertrophy and vascular remodeling (pulmonary arteries),[16]; in vivo,positively influenced
same,"Fibrosis, hydroxyproline content and mRNA expression in lung extracts",[16]; lung extracts,"inhibited histologically assessed fibrosis, hydroxyproline content"
same,Activity in preventive and therapeutic protocols,[16]; oral,active both in preventive and in therapeutic protocols in a dose-dependent manner
same,"Fibrosis, collagen deposition, hydroxyproline, TGF-β1, cell infiltration, IL-6 and IL-1β mRNA","[17]; mouse, in vivo","inhibited fibrosis, collagen deposition, hydroxyproline and TGF-β1 content, cell infiltration, and expression of mRNA for IL-6 and IL-1β"
same,Lung fibrosis,[17]; oral,attenuated
same,"Liver fibrosis, hydroxyproline deposition, TGF-β1 expression",[18],"inhibited diethylnitrosamine-induced liver fibrosis, hydroxyproline deposition, and TGF-β1 expression"
same,"Lung hydroxyproline content and mRNA expression of TNF-α, FN, CTGF","[19]; mouse, in vivo","lowered lung hydroxyproline content and mRNA expression of TNF-α, fibronectin (FN), and CTGF"
same,Potency relative to pirfenidone and nintedanib,[19]; therapeutic regimen,therapeutically equipotent to pirfenidone and nintedanib
COc1ccc(C2CNC(=O)C2)cc1OC1CCCC1 (stereo not shown) [rolipram],"Fibrotic score, hydroxyproline content, serum TNF-α",[20],"inhibit fibrotic score, hydroxyproline content, and serum tumor necrosis factor-α (TNF-α)"
same,"Collagen deposition, α-SMA staining and mRNA expression",[21],"inhibited collagen deposition, α-smooth muscle actin (α-SMA) staining, and mRNA expression"
same,Intra-implant collagen and TGF-β1 deposition,sponge implant model,inhibiting intra-implant collagen and TGF-β1 deposition
same,mRNA expression of α-SMA and Col1A2,hepatic stellate cells,inhibited mRNA expression of α-SMA and Col1A2
same,Skin fibrosis,skin fibrosis,inhibited
same,Renal interstitial fibrosis,[22],inhibit renal interstitial fibrosis
same,Epithelial-mesenchymal transition changes,[23],"inhibited epithelial-mesenchymal transition changes like FN and collagen mRNA expression, although not α-SMA mRNA"
same,Collagen and TGF-β1 in colonic tissue,[24],inhibited collagen and TGF-β1
same,Fibrotic reactions,cecal abrasion model,inhibited fibrotic reactions
same,"TGF-β-induced damage, FN expression, deficiency of mitochondrial biogenesis",[25],"inhibited TGF-β-induced damage, FN expression, and deficiency of mitochondrial biogenesis"
same,FN-induced chemotaxis and contraction of collagen gels,[6],inhibited FN-induced chemotaxis and contraction of collagen gels
